This experiment has as its target TrkA (Homo sapiens (Human), UniProt P04629). Nature of the experiment: TrkA Omnia Assay. Type of experiment: biochemical. The following applies: averaged IC50; 20 nM enzyme, 500 μM ATP, 10 μM peptide substrate. Summed up: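 Continuous fluorescent kinase read-out (ex 360 nm, em 485 nm) over 70 min, with initial rates fitted to 4- or 5-parameter logistic curves for IC50. Final conditions: 500 μM ATP, 10 μM Omnia Tyr Peptide #4, 20 nM TrkA, MOPS pH 7.5 buffer with MgCl2 and Triton X-100; enzyme and compound preincubated 10 min at ambient temperature.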

Counter-ions that a name gives are not always drawn.

Chain of TrkA (P04629 33-796): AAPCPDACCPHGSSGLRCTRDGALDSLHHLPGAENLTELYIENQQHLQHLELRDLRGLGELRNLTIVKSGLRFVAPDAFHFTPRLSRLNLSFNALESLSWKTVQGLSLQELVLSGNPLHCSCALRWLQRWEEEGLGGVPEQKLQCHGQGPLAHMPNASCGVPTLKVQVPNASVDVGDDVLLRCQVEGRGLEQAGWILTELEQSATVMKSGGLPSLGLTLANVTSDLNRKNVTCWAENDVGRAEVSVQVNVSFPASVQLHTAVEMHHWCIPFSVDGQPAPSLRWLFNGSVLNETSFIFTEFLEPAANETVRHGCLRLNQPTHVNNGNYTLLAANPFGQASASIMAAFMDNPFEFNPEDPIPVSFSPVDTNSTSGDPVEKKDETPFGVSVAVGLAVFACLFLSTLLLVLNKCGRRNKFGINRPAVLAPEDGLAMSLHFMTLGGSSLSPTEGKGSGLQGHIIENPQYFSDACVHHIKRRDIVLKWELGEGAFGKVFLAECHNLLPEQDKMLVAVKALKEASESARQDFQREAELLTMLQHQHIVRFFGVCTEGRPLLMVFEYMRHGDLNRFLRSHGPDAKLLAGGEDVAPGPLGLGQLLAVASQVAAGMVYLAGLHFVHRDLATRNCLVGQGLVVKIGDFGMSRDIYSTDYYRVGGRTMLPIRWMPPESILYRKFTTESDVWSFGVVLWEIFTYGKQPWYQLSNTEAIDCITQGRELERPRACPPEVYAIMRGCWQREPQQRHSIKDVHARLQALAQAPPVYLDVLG

One may read the IC50 as the concentration needed to halve the response being measured. Read a low IC50 as greater potency in that assay. In turn, `COCCN1C[C@@H](NC(=O)Nc2c(C)c(-c3cnn(CCOC)c3)nn2-c2ccccc2)[C@H](c2cccc(F)c2)C1` [Example 383, 1-((3S,4R)-4-(3-fluorophenyl)-1-(2-methoxyethyl)pyrrolidin-3-yl)-3-(1′-(2-methoxyethyl)-4-methyl-1-phenyl-1H,1′H-[3,4′-bipyrazol]-5-yl)urea] registered an IC50 of less than 100 nM.
Next, `COCCN1C[C@@H](NC(=O)Nc2c(C)c(-c3sc(C)nc3C)nn2-c2ccccc2)[C@H](c2ccc(F)c(F)c2)C1` [Example 513, 1-((3S,4R)-4-(3,4-difluorophenyl)-1-(2-methoxyethyl)pyrrolidin-3-yl)-3-(3-(2,4-dimethylthiazol-5-yl)-4-methyl-1-phenyl-1H-pyrazol-5-yl)urea]: less than 100 nM; `CC[C@@H](O)COc1nn(-c2ccccc2)c(NC(=O)N[C@@H]2CN(CCOC)C[C@H]2c2ccc(F)cc2)c1C` [Example 379, 1-((3S,4R)-4-(4-fluorophenyl)-1-(2-methoxyethyl)pyrrolidin-3-yl)-3-(3-((R)-2-hydroxybutoxy)-4-methyl-1-phenyl-1H-pyrazol-5-yl)urea]: less than 100 nM; `COCCN1C[C@@H](NC(=O)Nc2c(C)c(OCC(C)(C)O)nn2-c2ccccc2)[C@H](c2ccc(F)c(F)c2)C1` [Example 145, 1-((3S,4R)-4-(3,4-difluorophenyl)-1-(2-methoxyethyl)pyrrolidin-3-yl)-3-(3-(2-hydroxy-2-methylpropoxy)-4-methyl-1-phenyl-1H-pyrazol-5-yl)urea]: less than 100 nM.
The figure for `COCCN1C[C@@H](NC(=O)Nc2c(C)c(OCCO)nn2-c2ccccc2)[C@H](c2ccc(F)c(F)c2)C1` [Example 178, 1-((3S,4R)-4-(3,4-difluorophenyl)-1-(2-methoxyethyl)pyrrolidin-3-yl)-3-(3-(2-hydroxyethoxy)-4-methyl-1-phenyl-1H-pyrazol-5-yl)urea hydrochloride] is less than 100 nM; for `COCCN1C[C@@H](NC(=O)Nc2c(F)c(-c3ccccc3)nn2C)[C@H](c2ccc(F)c(F)c2)C1` [Example 168, 1-((3S,4R)-4-(3,4-difluorophenyl)-1-(2-methoxyethyl)pyrrolidin-3-yl)-3-(4-fluoro-1-methyl-3-phenyl-1H-pyrazol-5-yl)urea] it is less than 100 nM.
Next, `COCCCc1nn(-c2ccccc2)c(NC(=O)N[C@@H]2CN(CCOC)C[C@H]2c2cc(F)cc(F)c2)c1C` [Example 281, 1-((3S,4R)-4-(3,5-difluorophenyl)-1-(2-methoxyethyl)pyrrolidin-3-yl)-3-(3-(3-methoxypropyl)-4-methyl-1-phenyl-1H-pyrazol-5-yl)urea]: less than 100 nM; `COCCN1C[C@@H](NC(=O)Nc2c(F)c(-c3cnn(C)c3)nn2-c2ccccc2)[C@H](c2ccc(F)c(F)c2)C1` [Example 438, 1-((3S,4R)-4-(3,4-difluorophenyl)-1-(2-methoxyethyl)pyrrolidin-3-yl)-3-(4-fluoro-1′-methyl-1-phenyl-1H,1′H-[3,4′-bipyrazol]-5-yl)urea]: less than 100 nM.
On to `O=C(Nc1c2c(nn1-c1ccccc1)CCC2)N[C@@H]1CN(CC(F)(F)F)C[C@H]1c1ccccn1` (relative stereo) [Example 209, 1-(2-phenyl-2,4,5,6-tetrahydrocyclopenta[c]pyrazol-3-yl)-3-((trans)-4-(pyridin-2-yl)-1-(2,2,2-trifluoroethyl)pyrrolidin-3-yl)urea], for which the IC50 fell in the range of 100 to 1000 nM.
The figure for `COCCN1C[C@@H](NC(=O)Nc2c(C)c(-c3ccncc3)nn2-c2ccccc2)[C@H](c2ccc(F)c(F)c2)C1` [Example 487, 1-((3S,4R)-4-(3,4-difluorophenyl)-1-(2-methoxyethyl)pyrrolidin-3-yl)-3-(4-methyl-1-phenyl-3-(pyridin-4-yl)-1H-pyrazol-5-yl)urea] is less than 100 nM; for `CCOc1cc(NC(=O)N[C@@H]2CN(CCOC)C[C@H]2c2ccc(F)c(F)c2)n(-c2ccccc2)n1` [Example 146, 1-((3S,4R)-4-(3,4-difluorophenyl)-1-(2-methoxyethyl)pyrrolidin-3-yl)-3-(3-ethoxy-1-phenyl-1H-pyrazol-5-yl)urea] it is less than 100 nM.
The figure for `CCOc1nn(-c2ccccc2)c(NC(=O)N[C@@H]2CN(C(C)COC)C[C@H]2c2ccc(F)c(F)c2)c1C` (stereo partly drawn) [Example 255, 1-((3S,4R)-4-(3,4-difluorophenyl)-1-(1-methoxypropan-2-yl)pyrrolidin-3-yl)-3-(3-ethoxy-4-methyl-1-phenyl-1H-pyrazol-5-yl)urea] is less than 100 nM; for `COCCN1C[C@@H](NC(=O)Nc2cc(-c3ccc(SC)cc3)nn2C)[C@H](c2ccc(F)c(F)c2)C1` [Example 125, 1-((3S,4R)-4-(3,4-difluorophenyl)-1-(2-methoxyethyl)pyrrolidin-3-yl)-3-(1-methyl-3-(4-(methylthio)phenyl)-1H-pyrazol-5-yl)urea] it is less than 100 nM.
Next, `COCCN1C[C@@H](NC(=O)Nc2c(C)c(OC[C@@H]3COC(C)(C)O3)nn2-c2ccccc2)[C@H](c2cc(F)c(F)c(F)c2)C1` [Example 399, 1-(3-(((R)-2,2-dimethyl-1,3-dioxolan-4-yl)methoxy)-4-methyl-1-phenyl-1H-pyrazol-5-yl)-3-((3S,4R)-1-(2-methoxyethyl)-4-(3,4,5-trifluorophenyl)pyrrolidin-3-yl)urea]: less than 100 nM; `COCCN1C[C@@H](NC(=O)Nc2c(C)c(-c3nc(C)no3)nn2-c2ccccc2)[C@H](c2ccc(F)c(F)c2)C1` [Example 298, 1-((3S,4R)-4-(3,4-difluorophenyl)-1-(2-methoxyethyl)pyrrolidin-3-yl)-3-(4-methyl-3-(3-methyl-1,2,4-oxadiazol-5-yl)-1-phenyl-1H-pyrazol-5-yl)urea]: less than 100 nM; `COCCN1C[C@@H](NC(=O)Nc2c(C)c(CCO)nn2-c2ccccc2)[C@H](c2cc(F)cc(F)c2)C1` [Example 286, 1-((3S,4R)-4-(3,5-difluorophenyl)-1-(2-methoxyethyl)pyrrolidin-3-yl)-3-(3-(2-hydroxyethyl)-4-methyl-1-phenyl-1H-pyrazol-5-yl)urea]: less than 100 nM.
On to `COCCN1C[C@@H](NC(=O)Nc2c(C(F)(F)F)c(OC)nn2-c2ccccc2)[C@H](c2cc(F)cc(F)c2)C1` [Example 606, 1-((3S,4R)-4-(3,5-difluorophenyl)-1-(2-methoxyethyl)pyrrolidin-3-yl)-3-(3-methoxy-1-phenyl-4-(trifluoromethyl)-1H-pyrazol-5-yl)urea], for which the IC50 was less than 100 nM.
`COCCN1C[C@@H](NC(=O)Nc2c(C)c(-c3cnn(C(C)C)c3)nn2-c2ccccc2)[C@H](c2ccc(F)cc2)C1` [Example 518, 1-((3S,4R)-4-(4-fluorophenyl)-1-(2-methoxyethyl)pyrrolidin-3-yl)-3-(1′-isopropyl-4-methyl-1-phenyl-1H, 1′H-[3,4′-bipyrazol]-5-yl)urea] displayed an IC50 of less than 100 nM.
The figure for `COCCN1C[C@@H](NC(=O)Nc2c(Cl)c(C(F)(F)CO)nn2-c2ccccc2)[C@H](c2ccc(F)c(F)c2)C1` [Example 409, 1-(4-chloro-3-(1,1-difluoro-2-hydroxyethyl)-1-phenyl-1H-pyrazol-5-yl)-3-((3S,4R)-4-(3,4-difluorophenyl)-1-(2-methoxyethyl)pyrrolidin-3-yl)urea] is less than 100 nM; for `COCCN1C[C@@H](NC(=O)Nc2c(C)c(OCCNS(C)(=O)=O)nn2-c2ccccc2)[C@H](c2ccc(F)c(F)c2)C1` [Example 544, N-(2-((5-(3-((3S,4R)-4-(3,4-difluorophenyl)-1-(2-methoxyethyl)pyrrolidin-3-yl)ureido)-4-methyl-1-phenyl-1H-pyrazol-3-yl)oxy)ethyl)methanesulfonamide] it is less than 100 nM; for `CCOc1nn(-c2ccccc2)c(NC(=O)N[C@@H]2CN(CC(=O)OC)C[C@H]2c2ccc(F)c(F)c2)c1C` [Example 468, methyl 2-((3R,4S)-3-(3,4-difluorophenyl)-4-(3-(3-ethoxy-4-methyl-1-phenyl-1H-pyrazol-5-yl)ureido)pyrrolidin-1-yl)acetate] it is less than 100 nM.
The compound `COCCN1C[C@@H](NC(=O)Nc2c(C)c(-c3cnn(C(C)C)c3)nn2-c2ccccc2)[C@H](c2ccc(F)c(F)c2)C1` [Example 503, 1-((3S,4R)-4-(3,4-difluorophenyvl)-1-(2-methoxyethyl)pyrrolidin-3-yl)-3-(1′-isopropyl-4-methyl-1-phenyl-1H, 1′H-[3,4′-bipyrazol]-5-yl)urea] yielded an IC50 of less than 100 nM.
The figure for `COCCN1C[C@@H](NC(=O)Nc2c(Cl)c(-c3cnn(C)c3)nn2-c2ccccc2)[C@H](c2ccc(F)c(F)c2)C1` [Example 423, 1-(4-chloro-1′-methyl-1-phenyl-1H,1′H-[3,4′-bipyrazol]-5-yl)-3-((3S,4R)-4-(3,4-difluorophenyl)-1-(2-methoxyethyl)pyrrolidin-3-yl)urea] is less than 100 nM; for `COCCN1C[C@@H](NC(=O)Nc2c(Br)c(COC)nn2-c2ccccc2)[C@H](c2cc(F)cc(F)c2)C1` [Example 406, 1-(4-bromo-3-(methoxymethyl)-1-phenyl-1H-pyrazol-5-yl)-3-((3S,4R)-4-(3,5-difluorophenyl)-1-(2-methoxyethyl)pyrrolidin-3-yl)urea] it is less than 100 nM.
Next, `Cc1c(-c2cn(C)cn2)nn(-c2ccccc2)c1NC(=O)N[C@@H]1CN(Cc2csnn2)C[C@H]1c1ccc(F)c(F)c1` [Example 252, 1-((3S,4R)-1-((1,2,3-thiadiazol-4-yl)methyl)-4-(3,4-difluorophenyl)pyrrolidin-3-yl)-3-(4-methyl-3-(1-methyl-1H-imidazol-4-yl)-1-phenyl-1H-pyrazol-5-yl)urea]: less than 100 nM; `COCCN1C[C@@H](NC(=O)Nc2c3c(nn2-c2ccccc2)CCC3)[C@H](c2cncc(F)c2)C1` (relative stereo) [Example 341, 1-(trans-4-(5-fluoropyridin-3-yl)-1-(2-methoxyethyl)pyrrolidin-3-yl)-3-(2-phenyl-2,4,5,6-tetrahydrocyclopenta[c]pyrazol-3-yl)urea]: 100 to 1000 nM.

Values taken from patent publication US10323022B2, “Pyrrolidinyl urea, pyrrolidinyl thiourea and pyrrolidinyl guanidine compounds as TrkA kinase inhibitors” (Array BioPharma Inc., priority 2011, dated 2019).
